Here are results for eight compounds from PubChem BioAssay (NCI).

Common to all, as to test: NCI tumour cell line growth inhibition, 48 h
The subject of assay [1] is DMS 114 small cell lung.
The test system of assay [2] is DMS 273 small cell lung.
Assay [3] relates to LXFL 529 NSCLC.
Assay [4] deals with M19-MEL melanoma.
For assay [5], the system named is SNB-78 CNS.
The test system of assay [6] is HOP-18 NSCLC.
Assay [7] has as its system RXF-631 renal.
The test system of assay [8] is P388 leukemia.
For assay [9], the system named is P388/ADR leukemia.
Assay [10] has as its system SN12K1 renal.

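Protocol summary: plate cells (96-well), add compound at 5 concentrations, incubate 48 h, interpolate endpoints linearly. At the GI50, growth is halved. TGI: total growth inhibition.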

`O=C(OCc1ccccc1)C(Cc1ccccc1)N(Cc1ccccc1)Cc1ccccc1` (stereo not drawn): the TGI in assay [1], in assay [2], in [3], in assay [4] and in [5] was more than 100 µM in each case.

For `O=C1c2cccc(NCCNCCO)c2C(=O)c2cccc(NCCNCCO)c21`, the TGI is 1.41 µM in assay [1]; 7.19 µM in [2]; 7.79 µM in [6]; 2.95 µM in assay [3]; 16.4 µM in assay [7]; 6.91 µM in assay [5].

`COc1c(O)c(O)cc2c1-c1ccc(OC)c(=O)cc1C(NC(C)=O)CC2` (stereo not drawn): the TGI in assay [1] was 6.43 µM; in assay [2], more than 59.8 µM; in assay [6], more than 100 µM; in assay [3] it was 25.2 µM; in assay [4], 23.7 µM; in [7], 68.4 µM. Moreover, the TGI in [5] is more than 100 µM.

Turning to `Cc1c2ccncc2c(C)c2c1[nH]c1ccccc12`, the TGI in assay [1] stood at 3.09 µM; in [2] it was 2.22 µM; in assay [6], 6.38 µM; in assay [4] it was 2.16 µM; in assay [8], 2.89 µM; in assay [9], 4.32 µM. Besides, the TGI in assay [10] stood at 3.37 µM; in assay [5] it was 7.88 µM.

For the compound `O=C([CH-]C(=O)c1ccccc1)c1ccccc1.O=C([CH-]C(=O)c1ccccc1)c1ccccc1.[O]=[U+2]=[O]`, in assay [6], the GI50 was 5.3 µM and the TGI turned out to be 24.9 µM.

`O=[N+]([O-])c1ccc(C2=Nc3ccccc3SC(c3ccccc3)C2)cc1` (stereo not drawn): the TGI stood at 32.8 µM in assay [1]; 27.5 µM in [2]; 34.8 µM in assay [3]; 31 µM in [4]; 70.9 µM in [5].

As for `CCCCC#CS(=O)(=O)C(F)(F)F`, the TGI in assay [1] is more than 100 µM; in [2], more than 100 µM; in [6], more than 100 µM; in assay [8] it was 63.2 µM; in [9] it was more than 100 µM; in assay [10], more than 100 µM. The TGI in assay [5] was more than 100 µM.

On to `C[C@]12CC[C@H](O)C=C1CC[C@@H]1[C@@H]2CC[C@]2(C)C(c3ccc(=O)oc3)CC[C@]12O` (stereo partly drawn), for which the TGI in assay [1] was less than 0.0125 µM; in assay [2], 0.0427 µM; in assay [6], 0.0151 µM; in assay [4], 0.071 µM; in assay [8], 125 µM; in assay [9] it was 125 µM. The TGI is 0.0201 µM in [10] and 0.503 µM in assay [5].
